ChEMBL document CHEMBL1201862, “PubChem BioAssay data set” (2004)
“And” between values parts separate entries of the source, which are not always exact repeats. Identical values can stand only once. The source made the active and inactive calls.

Columns and labels:
[1] = molecular target: T1, Cytochrome P450 1A2 (Homo sapiens, UniProt P05177);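 also: PubChem cytochrome P450 panel assay, CYP1A2 panel member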
T1 sequence (P05177 whole entry): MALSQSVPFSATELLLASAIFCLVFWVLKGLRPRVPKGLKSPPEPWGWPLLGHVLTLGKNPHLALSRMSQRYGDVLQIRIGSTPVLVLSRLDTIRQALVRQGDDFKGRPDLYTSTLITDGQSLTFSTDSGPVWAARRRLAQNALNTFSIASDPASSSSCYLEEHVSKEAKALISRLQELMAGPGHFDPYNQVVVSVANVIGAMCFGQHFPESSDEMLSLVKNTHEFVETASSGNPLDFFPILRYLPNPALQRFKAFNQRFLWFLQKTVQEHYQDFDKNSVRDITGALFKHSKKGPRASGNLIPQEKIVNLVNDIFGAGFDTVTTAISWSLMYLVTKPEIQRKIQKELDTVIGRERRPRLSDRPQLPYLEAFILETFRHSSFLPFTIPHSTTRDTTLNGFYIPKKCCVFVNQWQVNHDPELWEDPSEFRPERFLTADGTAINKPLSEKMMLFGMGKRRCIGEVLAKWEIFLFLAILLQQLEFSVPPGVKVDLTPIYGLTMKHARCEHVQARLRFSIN

[2] = molecular target: Cytochrome P450 2C9 (Homo sapiens, UniProt P11712)
[3] = molecular target: Cytochrome P450 3A4 (Homo sapiens, UniProt P08684);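 also: CYP3A4 tested as one member of a cytochrome P450 panel screen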
[4] = molecular target: T2, Corticotropin-releasing factor receptor 2/Corticotropin-releasing factor-binding protein (Homo sapiens, UniProt P24387+Q13324); test: activators of CRF receptor 2 with binding protein – uHTS hits, confirmation (AID 602473); assay type: functional; conditions: read-out: EC50_Mean
T2 sequence (Q13324 whole entry): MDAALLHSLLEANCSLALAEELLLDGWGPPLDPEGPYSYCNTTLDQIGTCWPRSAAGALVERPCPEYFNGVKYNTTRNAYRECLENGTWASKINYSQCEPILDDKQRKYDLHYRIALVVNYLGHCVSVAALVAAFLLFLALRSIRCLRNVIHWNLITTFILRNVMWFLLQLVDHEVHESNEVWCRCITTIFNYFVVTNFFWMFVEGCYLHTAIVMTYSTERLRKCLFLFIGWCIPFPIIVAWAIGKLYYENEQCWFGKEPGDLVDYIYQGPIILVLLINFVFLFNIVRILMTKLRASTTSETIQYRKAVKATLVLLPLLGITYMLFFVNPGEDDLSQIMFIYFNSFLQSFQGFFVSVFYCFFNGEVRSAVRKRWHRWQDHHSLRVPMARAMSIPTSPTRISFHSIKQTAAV
T2 sequence (P24387 whole entry): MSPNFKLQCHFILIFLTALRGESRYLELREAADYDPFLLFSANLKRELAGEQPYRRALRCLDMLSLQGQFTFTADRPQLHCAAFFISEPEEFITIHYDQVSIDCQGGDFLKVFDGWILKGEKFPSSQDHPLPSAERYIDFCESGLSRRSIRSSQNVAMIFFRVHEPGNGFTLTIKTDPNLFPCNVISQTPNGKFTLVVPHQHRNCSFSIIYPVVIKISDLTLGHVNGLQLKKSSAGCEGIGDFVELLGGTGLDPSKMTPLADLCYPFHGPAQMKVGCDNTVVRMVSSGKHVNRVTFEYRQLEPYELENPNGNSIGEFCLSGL

[5] = tested on: Streptococcus; test: Group A Streptococcus viability loss, dose response, counter-screen for streptokinase expression inhibitor project, luminescence, BacTiterGlo (AID 1915); assay type: functional, organism-based;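 also: potency for reduction of bacterial viability or growth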
[6] = tested on: Streptococcus sp. 'group A'; test: growth inhibition of control SK(-) GAS strain, dose response, counter-screen for streptokinase expression inhibitor project, luminescence, kanamycin, BacTiterGlo, confirmation (AID 1900); assay type: functional, organism-based
[7] = cytotoxicity toward NIH3T3 fibroblasts, dose response, counter-screen, cell-based, ATP luminescence, mouse fibroblasts (AID 2010); assay type: functional;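 also: cells exposed to compound for about 90 hours before reading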
[8] = inhibitors of intracellular T. cruzi replication, confirmation, NIH3T3 host cells, beta-gal luminescence (AID 2044); assay type: functional, cell-based;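 also: intracellular parasites grown in NIH/3T3 mouse fibroblasts as host cells; luminescent beta-galactosidase reporter signal from transgenic T. cruzi replicating inside host cells; inhibitors lower the luminescence signal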

Chain of Cytochrome P450 2C9 (P11712 whole entry): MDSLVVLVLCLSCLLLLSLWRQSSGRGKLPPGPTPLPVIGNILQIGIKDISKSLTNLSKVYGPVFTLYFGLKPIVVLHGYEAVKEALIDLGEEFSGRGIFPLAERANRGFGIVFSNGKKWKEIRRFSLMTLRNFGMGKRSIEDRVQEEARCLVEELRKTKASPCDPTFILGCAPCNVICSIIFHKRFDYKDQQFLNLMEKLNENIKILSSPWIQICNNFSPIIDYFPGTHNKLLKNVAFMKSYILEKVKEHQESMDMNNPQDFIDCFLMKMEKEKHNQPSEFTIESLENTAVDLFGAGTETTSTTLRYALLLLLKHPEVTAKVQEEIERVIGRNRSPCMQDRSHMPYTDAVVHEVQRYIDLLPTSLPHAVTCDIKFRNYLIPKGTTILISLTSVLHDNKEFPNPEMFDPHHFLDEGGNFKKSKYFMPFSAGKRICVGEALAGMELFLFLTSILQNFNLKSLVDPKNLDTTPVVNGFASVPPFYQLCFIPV
Chain of Cytochrome P450 3A4 (P08684 whole entry): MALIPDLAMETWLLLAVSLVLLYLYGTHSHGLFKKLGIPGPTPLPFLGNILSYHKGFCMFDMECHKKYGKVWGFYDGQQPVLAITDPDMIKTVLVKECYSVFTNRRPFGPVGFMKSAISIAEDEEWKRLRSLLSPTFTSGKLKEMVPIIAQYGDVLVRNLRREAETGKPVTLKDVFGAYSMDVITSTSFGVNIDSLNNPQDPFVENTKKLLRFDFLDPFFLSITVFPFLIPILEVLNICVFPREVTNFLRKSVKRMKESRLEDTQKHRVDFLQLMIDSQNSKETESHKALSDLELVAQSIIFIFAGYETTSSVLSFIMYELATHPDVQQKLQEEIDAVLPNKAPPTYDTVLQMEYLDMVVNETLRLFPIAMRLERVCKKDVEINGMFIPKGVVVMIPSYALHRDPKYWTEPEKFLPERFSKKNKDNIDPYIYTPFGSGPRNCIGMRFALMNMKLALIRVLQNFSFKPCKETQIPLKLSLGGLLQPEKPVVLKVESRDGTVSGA

N[C@H](CCCP(=O)(O)O)C(=O)O
AC50 [1]: 25.1 µM (inconclusive) and 31.6 µM (inconclusive)

C=CCSc1nnc(NC(=O)COc2ccc3ccccc3c2)s1
AC50 [2]: 8.91 µM (inconclusive)

O=C1S/C(=C/c2ccc(N3CCOCC3)o2)C(=O)N1Cc1ccc(F)cc1
AC50 [3]: 7.94 µM (inconclusive)
EC50 [4]: 5.79 µM (active)

COc1ccc(-c2[nH]nc(C)c2-c2ccc(Cl)cc2)c(O)c1
EC50 [5]: 11.1 µM (active)
EC50 [6]: 9.86 µM (active)

N#Cc1cc(C(=O)c2ccccc2O)cn(-c2ccc(Cl)cc2)c1=O
EC50 [4]: > 53 µM (inactive)

Cc1cccc(OCCCCCn2ccnc2)c1
EC50 [7]: > 30 µM (not active)
EC50 [8]: 0.443 µM (active)

CCOC(=O)N1CCN(C(=O)CC(C(=O)N2CCc3ccccc32)n2ccnc2)CC1 (stereo unspecified)
EC50 [7]: > 60 µM (not active)
EC50 [8]: 1.82 µM (active)

O=C(c1ccc2c(=O)n(CC3CCCO3)c(=S)[nH]c2c1)N1CCN(c2ccccc2)CC1 (stereo unspecified)
AC50 [3]: 7.08 µM (inconclusive)
AC50 [2]: 7.94 µM (inconclusive)

COc1cccc(-c2cncnc2NCCN2CCOCC2)c1
AC50 [3]: 3.16 µM (inconclusive)
AC50 [1]: 15.8 µM (inconclusive)

C=CCn1c(NCc2ccccc2)nc2ccccc21
AC50 [3]: 25.1 µM (inconclusive)

Cc1ccc2nc(NC(=O)C3CCN(S(=O)(=O)c4cc([N+](=O)[O-])ccc4Cl)CC3)sc2c1
EC50 [7]: > 60 µM (not active)
EC50 [8]: 0.528 µM (active)

CCN(CC)c1ccc(N2C(=O)/C(=C\c3cccnc3)SC2=S)cc1
AC50 [1]: 1.41 µM (inconclusive)

COc1ccc2c3c([nH]c2c1)C(C)=NCC3
AC50 [3]: 2.51 µM (inconclusive)

CC(C)(C)C(=O)Nc1sc2c(c1C#N)CCN(Cc1ccccc1)C2
EC50 [4]: 10.2 µM (active)

O=C(Nc1cccnc1Cl)C1c2ccccc2Oc2ccccc21
AC50 [3]: 14.1 µM (inconclusive)
AC50 [1]: 3.16 µM (inconclusive)

COc1ccccc1-c1cncnc1N1CCN(C)CC1
AC50 [1]: 12.6 µM (inconclusive)

CC(C)N1CCc2c(sc(NC(=O)CCc3ccccc3)c2C(N)=O)C1
EC50 [4]: > 53 µM (inactive)

N#Cc1ccc(CN2CCCC3(CCN(C(=O)Oc4ccccc4)CC3)C2)cc1
AC50 [3]: 15.8 µM (inconclusive)
AC50 [2]: 39.8 µM (inconclusive)

CCOc1cc(-c2nc(-c3cc([N+](=O)[O-])ccc3C)c(-c3ccccc3)[nH]2)ccc1O
EC50 [7]: > 60 µM (inconclusive)
EC50 [8]: 2.7 µM (active)

N[C@H](Cc1ccc(N(CCCl)CCCl)cc1)C(=O)O
AC50 [1]: 15.8 µM (inconclusive)

Cc1ccc(S(=O)(=O)O[C@H]2C[C@@H](C(C)(C)C)CC[C@@H]2c2ccccc2)cc1
AC50 [3]: 2 µM (inconclusive)

CC(C(=O)Nc1ccccc1C(=O)O)n1c(C(F)(F)F)nc2ccccc21 (stereo unspecified)
EC50 [7]: > 60 µM (inconclusive)
EC50 [8]: 9.95 µM (active)

COc1ccc(OC)c(Nc2nc(-c3sc(NC(=O)c4ccccc4)nc3C)cs2)c1
AC50 [3]: 28.2 µM (inconclusive)

NNS(=O)(=O)c1cc(C(=O)O)cc(C(=O)O)c1
AC50 [1]: 0.001 µM (inconclusive)

O=C(c1cc(-c2ccccc2)nc2ccccc12)N1CCC2(CC1)OCCO2
AC50 [3]: 25.1 µM (inconclusive)

O=c1c(-c2ccccc2)nc2cnc(Oc3ccccc3)nc2n1Cc1cccs1
AC50 [1]: 2.51 µM (inconclusive)
AC50 [2]: 3.16 µM (inconclusive)

CCOC(=O)CC(NC(=O)c1ccc(C)cc1)c1ccc(C)cc1 (stereo unspecified)
AC50 [3]: 25.1 µM (inconclusive)

O=C(Nc1ccccc1)Nc1ccccc1-n1ccnc1
EC50 [7]: > 60 µM (not active)
EC50 [8]: 2.53 µM (active)

C/C(=N/NC(=O)c1ccc(C)s1)c1cccc(NC(=O)COc2ccc(Cl)cc2C)c1
AC50 [3]: 1.12 µM (inconclusive)

CC(C)C[C@H]1CN=C(Nc2ccccc2)N1CCc1cccc(F)c1
EC50 [4]: 6.43 µM (active)

CC(C)N(CCNC(=O)c1nn(Cc2ccccc2)c(=O)c2ccccc12)C(C)C
EC50 [7]: > 60 µM (not active)
EC50 [8]: 1.46 µM (active)

Cc1ccc(/N=N\c2ccc(N)cc2C)c(S(N)(=O)=O)c1
AC50 [3]: 3.98 µM (inconclusive)

Cn1cnc([N+](=O)[O-])c1Sc1nc(N)nc2c1ncn2Cc1ccccc1
AC50 [1]: 3.16 µM (inconclusive)

O[C@H](CCCN1CCN(c2ncc(F)cn2)CC1)c1ccc(F)cc1
AC50 [1]: 31.6 µM (inconclusive)
AC50 [2]: 12.6 µM (inconclusive)

COc1ccccc1CN1CC[C@@]2(CCCN(C(=O)c3ccco3)C2)C1
AC50 [1]: 39.8 µM (inconclusive)

CC1CC(C)CN(CCCNC(=O)C2CCCN(c3nnc(N4CCCC4=O)s3)C2)C1 (stereo unspecified)
AC50 [3]: 28.2 µM (inconclusive)

Cc1noc(C)c1-c1ccc2ncnc(NC3CCNCC3)c2c1
AC50 [1]: 31.6 µM (inconclusive)

CCN(CC)P(=O)(Nc1ccc(SC(F)F)cc1)c1ccc(N(C)C)cc1NC(=O)c1ccco1 (stereo unspecified)
EC50 [7]: > 60 µM (not active)
EC50 [8]: 1.99 µM (active)

CCc1ccc(OCCOCC(O)CNC(C)(C)C)cc1 (stereo unspecified)
EC50 [4]: > 53 µM (inactive)

O=C(NCCCN1CCc2ccccc2C1)C1CCN(S(=O)(=O)N2CCCC2)CC1
AC50 [3]: 20 µM (inconclusive)

S=C(Nc1ccc2c(c1)Cc1ccccc1-2)Nc1ccc2c(c1)Cc1ccccc1-2
AC50 [3]: 3.98 µM (inconclusive)

CS(=O)(=O)N1CC(C(=O)NC2CC2)Oc2ccc(Cl)cc21 (stereo unspecified)
AC50 [3]: 25.1 µM (inconclusive)
AC50 [2]: 10 µM (inconclusive)

Cc1ccc(/C=N\NC(=O)c2ccc(Cn3cc(Br)c([N+](=O)[O-])n3)o2)o1
EC50 [7]: > 60 µM (not active)
EC50 [8]: 0.878 µM (active)

N#Cc1c(Nc2cccc(F)c2)sc2c(O)cc(O)nc12
EC50 [5]: 5.71 µM (active)
EC50 [6]: 1.19 µM (active)

Cc1noc(N)c1C(=O)Nc1ccc(F)cc1
AC50 [2]: 3.98 µM (inconclusive)

O=C(O)CCC(=O)N1CCN(c2ccccn2)CC1
AC50 [3]: 3.55 µM (inconclusive)
AC50 [2]: 0.891 µM (inconclusive)

CC(C)CN1CCC2(CC1)CCN(C(=O)c1cc(C(F)(F)F)cc(C(F)(F)F)c1)CC2
AC50 [2]: 12.6 µM (inconclusive)

Cn1ncc(C#N)c1NC(=O)C1CC(c2ccc(Cl)cc2)=NO1 (stereo unspecified)
AC50 [3]: 20 µM (inconclusive)
AC50 [1]: 31.6 µM (inconclusive)
AC50 [2]: 12.6 µM (inconclusive)

Cc1cnc(CNc2ncncc2-c2cccc(NS(C)(=O)=O)c2)cn1
AC50 [1]: 31.6 µM (inconclusive)

Cc1ccccc1-c1nc(NC2CCNCC2)c2ccccc2n1
AC50 [1]: 20 µM (inconclusive)

COc1ccc(C(=O)c2ccc(N3CCN(C(=O)c4ccc(F)cc4)CC3)c(F)c2)cc1Br
EC50 [7]: 8.95 µM (active)
EC50 [8]: 2.37 µM (active)

CCC1CCCCN1S(=O)(=O)c1ccc(C(=O)Nc2nnc(C3=COCCO3)o2)cc1 (stereo unspecified)
EC50 [5]: 10.7 µM (active)
EC50 [6]: 4.61 µM (active)

CCCCN1C(=O)NC(=O)/C(=C(/C)NCCCN(CC)CC)C1=O
EC50 [7]: > 60 µM (not active)
EC50 [8]: 1.66 µM (active)

CC1(C)CSC(NCc2ccccc2)=N1
EC50 [4]: 2.84 µM (active)

CC(C)(C)NS(=O)(=O)c1ccc(NS(=O)(=O)c2ccc(F)cc2)cc1
AC50 [3]: 15.8 µM (inconclusive)

COc1ccc(C(=O)NC2CCN(C(S)=Nc3cccc(C)c3)CC2)cc1
AC50 [2]: 25.1 µM (inconclusive)

Cc1onc(C(=O)/C=C/N(C)C)c1C(=O)Nc1nccs1
AC50 [1]: 0.631 µM (inconclusive)

COc1ccc(Br)cc1S(=O)(=O)Nc1nc[nH]n1
EC50 [5]: > 150 µM (not active)
EC50 [6]: > 150 µM (not active)

CCN1CCc2c(sc(NC(=S)NC(=O)c3ccccc3)c2C#N)C1
AC50 [3]: 20 µM (inconclusive)
AC50 [1]: 14.1 µM (inconclusive)
